Reference: patent US4710492A, “3'-azido-2',3'-dideoxy-5-halouridine and its use in treating patients infected with retroviruses” (Yale University, priority 1986, dated 1987)
pIC50: −log10 of the molar value. Read-outs that look alike come from different tables or passages of the source.

Assays:
HTLV-III/LAV/AAV = experiment: Antiviral activity against HTLV-III/LAV/AAV; assay type: cell-based; settings: Human immunodeficiency virus 1; read-out: ID50 HTLV-III/LAV/AAV
[1] = system: Moloney Murine Leukemia Virus; experiment: Antiviral screening against Moloney Murine Leukemia Virus (MuLV) by XC-Assay; assay type: cell-based; settings: read-out: ID50 (Moloney Murine Leukemia Virus)
From the text: Biological Activity Assay Procedure for Antiviral Screening Against Moloney Murine Leukemia Virus (MuLV) by XC-Assay
The XC assay system is an indirect method for quantitation of murine-leukemia virus (MuLV) originally described by V. Klement et al, Proc. Natl. Acad. Sci., 63, 753, (1969) and modified by W. Rowe et al, Virology, 42, 1136, (1970). This test is based on the development of syncytial changes in the XC cell line when it is co-cultivated with mouse fibroblast cells (SC-1 cells) productively infected with MuLV. The XC cell line was derived from a rat tumor induced by the prague strain of Rouse Sarcoma Virus (RSV) (J. Svoboda et al, Folia Biol., 9, 77, (1963)).
1E5 SC-1 cells were seeded, in Earls Minimum Essential Medium (EMEM)-10% Fetal Bovine Serum (FBS), onto 60 mm petri dishes. The following day, the cells were inoculated with 0.5 ml of a virus dilution containing 25 μg/ml of DEAE-dextran. The dishes were maintained for 1 hour at 37° C. in a humidified 5% CO2 incubator. The virus inoculum was then removed and replaced with 5 ml of medium containing appropriate concentration of the test compound (two dishes/concentration). Medium containing 5% FBS was added to the virus control dishes. The medium (with or without the test compound) was changed at 48 hours.
Five days after virus inoculation, the culture fluid was decanted and the cells were irradiated with a GE germicidal bulb for 30 seconds (1500-1800 ergs UV-light). Cultures were immediately overlaid with 2E5 XC cells in 5 ml of EMEM-10% FBS/dish. The medium was changed at 2 day intervals. Four days after XC cell addition, cultures were simultaneously fixed and stained with GEIMSA for 10 to 15 minutes.
Plaques were counted using an inverted microscopy as holes in the cell sheet containing syncytial cells, or as focal masses of multinucleated giant cells.
Calculation of % Inhibition/Concentration: [formula] ID50: Accumulative % Inhibition using Reed-Muench Method

HTLV III/LAV = settings: in vitro; Mitsuya et al. 1985; cited from earlier work
[2] = SC1, XC-assay, SC-1 mouse fibroblast cells co-cultivated with XC cells, Reed-Muench Method

Compound	pIC50 (HTLV-III/LAV/AAV)	pIC50 [1, 2]	HTLV III/LAV replication (HTLV III/LAV)	cytopathic effects of HTLV III/LAV (HTLV III/LAV)	pIC50 ([1]; SC1, Fibroblast)
[N-]=[N+]=N[C@H]1C[C@H](n2cc(Br)c(=O)[nH]c2=O)O[C@@H]1CO [3'-N3 --BUdR, 3'-azido-2',3'-dideoxy-5-bromouridine]	5.64	5.82			
Cc1cn([C@H]2C[C@H](N=[N+]=[N-])[C@@H](CO)O2)c(=O)[nH]c1=O [3'-azido-3'-deoxythymidine]	6.64		inhibit HTLV III/LAV replication	block the cytopathic effects	7.64
[N-]=[N+]=N[C@H]1C[C@H](n2cc(I)c(=O)[nH]c2=O)O[C@@H]1CO [3'-N3 --IUdR, 3'-azido-2',3'-dideoxy-5-iodouridine]		5.52			
